# Source: patent publication US4260760A, “Diaryl-aliphatic-amino-aliphatic-piperazines” (priority 1979, dated 1981)
# Where a name gives a salt, the structure may show the parent alone.
# Test system: mice
# Experiment: Acute Oral LD50 mice (Table I)
# Assay type: in vivo
# Description: The low toxicity of these compounds makes them especially attractive for use where contact with skin surfaces or possible ingestion renders the use of irritating or toxic materials inadvisable.
# ______________________________________
smiles,measurement,value
"Cc1ccc(C(C)(C)C)cc1CCCC(CCCc1cc(C(C)(C)C)ccc1C)NCCCNCCCN [1-[1,7-di-(2-methyl-5-t-butylphenyl)-hydrochloride]",Acute Oral LD50 mice,1650 mg/kg
